Five substances from US6706754B2, “Reversed amidines and methods of using for treating, preventing, or inhibiting leishmaniasis” (The United States of America as represented by the …, priority 2000, dated 2004) can be followed below.

Series [1] deals with L. donovani infected macrophages. The experiment in a line: Infected macrophage assay, L. donovani. It counts as cell-based. Conditions: for Macrophage IC50 L. donovani: J774.G8 mouse macrophages, 72 hours, 37° C., number of infected macrophages inhibited by 50%. The source says:
(§1) A one week old, confluent culture of J774.G8 mouse macrophages was washed three times with Hank's Balanced Salt Solution (HBSS) without calcium and magnesium (Sigma, St. Louis, Mo.). The J774.G8 mouse macrophages are a continuous cell line that have been cited in the literature as supporting continuous and intracellular growth of various Leishmania sp. and they have been used for drug assays against intracellular parasites, Trypanosoma cruzi and Leishmania sp. See Alcina, A., et al. (1988) Antimicrobial Agents & Chemotherapy. 32(9):1412-5; Mendez, S., et al. (1996) International Journal for Parasitology 26(6):619-22; Hodgkinson, V. H., et al. (1996) Experimental Parasitology 83(1):94-105; and Chang, K. P. (1980) Science 209(4462): 1240-42, which are herein incorporated by reference.
(§2) The macrophages were then incubated at 37° C. in a humidified 5% CO2 incubator for 15 minutes with a Trypsin-EDTA (0.05% Trypsin, 0.53 mM EDTA 4Na) solution (GIBCO BRL, Grand Island, N.Y.). The macrophages were then detached with a cell scraper and suspended by vigorous pipetting. The macrophages were then mixed with a late log phase culture of L. mexicana promastigotes to yield a solution comprising about 5×10^5 macrophages per ml and about 25×10^5 promastigotes per ml in DMEM (pH 7.4) supplemented with 10% heat inactivated fetal calf serum comprising penicillin (50 units/ml) and streptomycin (50 μg/ml).
(§3) The macrophage-parasite mixture was then pipetted into 96-well flat-bottom plates (Costar, Cambridge, Mass.) at 200 μl per well. Infection and attachment of the macrophages was allowed to occur over a period of about 48 hours at 33° C. in a humidified 5% CO2 incubator. The wells were washed three times with HBSS to remove extracellular parasites. Each well was then treated with serial dilutions of a given candidate compound in DMEM.
(§4) The treated plate was incubated for about 72 hours at 33° C. in a humidified 5% CO2 incubator. The macrophages in each well were detached into the DMEM used for the incubation by pipetting and scraping with the tip of a microliter pipettor. 75 μl of the cell suspension was transferred to a cytospin funnel and the cells were centrifuged onto microscope slides at 800 rpm for 5 minutes using a Cytospin centrifuge (Shandon, Pittsburgh, Pa.).
(§5) The slides were air dried and then fixed in methanol for 5 seconds. After the methanol evaporated, the slides were stained with 5% Giemsa stain (Fisher, Suwanee, Ga.) in phosphate buffer comprising 3.1 mM potassium phosphate dibasic and 8.3 mM sodium phosphate monobasic for 45 minutes. After thorough washing with flowing tap water, the slides were air dried and then viewed by oil immersion microscopy to determine percentage of infected cells. A cell was considered to be infected if it comprised one or more amastigote with a visible parasite nucleus and kinetoplast. Counting parasites and counting infected cells provided similar results when determining IC50 values.
(§6) The IC50 values (the concentration of the compound that inhibited the number of infected macrophages by 50%) were determined with the software program TableCurve (SPSS Science, Chicago, Ill.) using the following dose-response equation: y=a+b/(1+(x/c)^d), where x=the drug concentration, y=absorbance at 490 nm, a=upper asymptote, b=slope, c=IC50 and d=lower asymptote. FIG. 3 provides the graphical data obtained for compound 1DWB667 as an example.
The susceptibility of L. donovani infected macrophages to the compounds of the present invention were preformed by a modified protocol for L. mexicana infected macrophages above, wherein all incubations of the parasite infected macrophages were done at 37° C. rather than 33° C. FIG. 4 provides the graphical data for compound 1DWB667 as an example.

The next series concerns J774.G8 macrophages. The experiment in a line: Macrophage toxicity assay (sulforhodamine B). It counts as cell-based, mouse. The settings on record: for IC50 (macrophage toxicity): 72 hours, 37° C., macrophage growth inhibited by 50%; for toxicity to the macrophage (in words): in vitro. On the procedure: The toxicity of the candidate compounds on J774.G8 macrophages was measured using a sulforhodamine B (Molecular Probes, Eugene, Oreg.) based dye assay.
Specifically, a confluent culture of macrophages in a T75 culture flask was harvested by replacing the growth medium (DMEM supplemented with 10% heat inactivated fetal calf serum, 50 units/ml penicillin, and 50 μg/ml streptomycin) with 25 ml of fresh medium and scraping the cells from the bottom of the culture flask. Cell clumps were broken up by gentle pipetting and the cell suspension was transferred to a 50 ml conical centrifuge tube. The cells were then pelleted by centrifugation at 1,000 rpm at 4° C. for 5 minutes. The supernatant was then removed and the cells were resuspended in 15 ml DMEM.
After counting an aliquot of the cell suspension, the macrophages were then diluted to about 1×10^5 cells/ml in DMEM and 180 μl was added to each well of a 96 well tissue culture plate Then 20 μl serial dilutions of a given candidate compound was added. The plate was then placed in a 37° C. humidified 5% CO2 incubator and incubated for 72 hours. Then 50 μl of 50% TCA was added to each well to fix the proteins. The plate was then incubated for at least 1 hour at 4° C.
The liquid contents of the wells were discarded and the wells were washed five times with 200 μl of distilled water. After the final wash the plate was allowed to air dry for 20 minutes. 100 μl of the sulforhodamine B dye (0.4% dye in 1% acetic acid) was added. The plate was then incubated at room temperature for 20 minutes. After discarding the dye solution, the wells were washed five times with 200 μl of 1% acetic acid and then allowed to air dry for 20 minutes. At this time, 50 μl of 10 mM TRIS base was added. After a few minutes of incubation, the absorbance of each well at 490 nm was measured in a SpectraMax Pro microplate reader (Molecular Devices, Sunnyvale, Calif.).
The IC50 values for each candidate compound (the concentration of the agent that inhibited macrophage growth by 50%) were determined for the macrophages with the aid of the program SoftMax Pro (Molecular Devices, Sunnyvale, Calif.) using the following dose response equation: y=((a−d)/1+(x/c)^b)+d, where x=drug concentration; y=absorbance at 490 nm; a=upper asymptote; b=slope; c=IC50; and d=lower asymptote. FIG. 5 provides the graphical data for compound 1DWB667 as an example.

Series [2] has as its system L. mexicana infected macrophages. The experiment in a line: Infected macrophage assay, L. mexicana. It counts as cell-based. The settings on record: for Macrophage IC50 L. mexicana: J774.G8 mouse macrophages, 72 hours, 33° C., number of infected macrophages inhibited by 50%. On the procedure: The susceptibilities of L. mexicania infected macrophages to candidate compounds were determined by the following assay.
as §1, §2, §3, §4, §5, §6

On to “2,5-Bis[2-methyl-4-(2-pyridylimino)aminophenyl]furan [DB 702]”, for which the “Macrophage IC50 L. donovani” value is 0.063 µg/mL in series [1] and “about 0.1 μg/ml” in series [1] (listed as DB702). Moreover, the “IC50 (macrophage toxicity)” value in the series with J774.G8 macrophages turned out to be 2.23 µg/mL. For the same substance, in series [2], the “Macrophage IC50 L. mexicana” value came out at 0.220 µg/mL.

For the substance “2,5-Bis[2-methyl-4-(5-methyl-2-pyridylimino)aminophenyl]furan [DB 710]”, the “Macrophage IC50 L. donovani” value in series [1] came to 0.530 µg/mL. Also, the “IC50 (macrophage toxicity)” value with J774.G8 macrophages was found to be 3.64 µg/mL. Further, the “toxicity to the macrophage (in words)” value with J774.G8 macrophages was “about less than or equal to DB 702 and 1DWB667”. Besides, the “Macrophage IC50 L. mexicana” value in series [2] was 0.094 µg/mL; in series [2] (listed as DB710), “about 0.1 μg/ml”.

For “2,5-Bis[2-methoxy-4-(2-pyridylimino)aminophenyl]furan [DB 709]”, the “Macrophage IC50 L. donovani” value in series [1] turned out to be 0.104 µg/mL. In the series with J774.G8 macrophages, the “IC50 (macrophage toxicity)” value is 0.199 µg/mL and the “toxicity to the macrophage (in words)” value is “toxic to the macrophage in vitro within the same range of toxicity to the amastigote within the macrophage”. Also, the “Macrophage IC50 L. mexicana” value in series [2] was found to be 0.127 µg/mL. The “Macrophage IC50 L. mexicana” value in series [2] (listed as DB709) was “about 0.1 μg/ml”.

On to “2,5-Bis[4-(2-pyridylimino)aminophenyl]furan [1DWB 667]”, for which the “Macrophage IC50 L. donovani” value in series [1] was 0.942 µg/mL; in series [1] (listed as 1DWB667), “about 1.4 μg/ml”. Besides, in the series on J774.G8 macrophages, the “IC50 (macrophage toxicity)” value came to 4.28 µg/mL. For the same substance, the “Macrophage IC50 L. mexicana” value is 1.37 µg/mL in series [2] and “about 1.4 μg/ml” in series [2] (listed as DB667).

Turning to “2,5-Bis[2-chloro-4-(2-pyridylimino)aminophenyl]furan [DB 712]”, the “Macrophage IC50 L. donovani” value in series [1] turned out to be 0.127 µg/mL. Moreover, the “reduction of parasite burden in L. donovani infected macrophages (in words)” value in series [1] (in vitro, visceral strain) is given as “least effective in reducing parasite burden”. In the series on J774.G8 macrophages, the “IC50 (macrophage toxicity)” value was 3.39 µg/mL; the “toxicity to the macrophage (in words)” value was “about less than or equal to DB 702 and 1DWB667”. For the same substance, the “Macrophage IC50 L. mexicana” value in series [2] came out at 0.689 µg/mL. In series [2] (in vitro, cutaneous strain), the “reduction of parasite burden in L. mexicana infected macrophages (in words)” value is recorded as “least effective in reducing parasite burden”.
